# Target: PTEN (GST-PTEN; Myc-PTEN) (Homo sapiens, UniProt P60484)
# Test: SPR, BIACORE […], PTEN immobilised on CM5 chip
# Type: binding
# Chain of PTEN (GST-PTEN; Myc-PTEN) (P60484 whole entry): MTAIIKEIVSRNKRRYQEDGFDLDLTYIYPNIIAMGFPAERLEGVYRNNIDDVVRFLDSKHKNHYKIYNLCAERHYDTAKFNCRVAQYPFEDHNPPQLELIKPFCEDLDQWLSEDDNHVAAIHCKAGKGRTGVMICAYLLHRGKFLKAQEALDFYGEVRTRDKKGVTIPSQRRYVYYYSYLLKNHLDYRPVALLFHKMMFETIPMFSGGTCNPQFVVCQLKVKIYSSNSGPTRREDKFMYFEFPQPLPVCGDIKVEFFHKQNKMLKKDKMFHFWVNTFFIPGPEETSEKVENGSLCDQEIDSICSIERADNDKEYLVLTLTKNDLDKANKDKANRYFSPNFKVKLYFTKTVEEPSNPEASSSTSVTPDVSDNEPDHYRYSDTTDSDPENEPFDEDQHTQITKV
compound,measurement,value
C[C@@H]1O[C@@H](O[C@@H]2[C@@H](O)[C@H](OCCc3ccc(O)c(O)c3)O[C@H](CO[C@@H]3O[C@H](CO)[C@@H](O)[C@H](O)[C@H]3O)[C@H]2OC(=O)/C=C/c2ccc(O)c(O)c2)[C@H](O)[C@H](O)[C@H]1O [Echinacoside],Kd,230 µM
